Reference: paper PMC3012033 (Lipids in Health and Disease, 2010)

Tests used:
[1] = test system: B16F10 mice melanoma cell line; experiment: B16F10 melanoma cell viability (MTT, Trypan Blue exclusion); type: cell-based
Protocol: B16F10 mice melanoma cell line was generously provided by Dr. Roger Chammas (USP, São Paulo, Brazil). Cells were routinely cultured in RPMI 1640 medium supplemented with 10% fetal bovine serum (FBS) at 37°C in a humidified atmosphere containing 5% CO2.
To dissolve the crystals of Formazan was used dimethylsulfoxide (DMSO). Quantification was obtained by the absorbance reading at a wavelength of 450 nm to 690 nm. Cell viability was also evaluated by the method of Trypan Blue exclusion (Invitrogen, Carlsbad, CA), by direct counting in a hemocytometer.

B16F10 melanoma cells = experiment: Cell cycle analysis by flow cytometry (propidium iodide); type: cell-based, mice; conditions: 0.8 μM
Protocol: Cell cycle analysis was determined by flow cytometry at the Federal State University of Paraná. Briefly, after the different treatments, 2 × 10^6 cells were trypsinized, washed three times with PBS, fixed in 70% ethanol, and stained with Propidium Iodide (PI) solution. All analyses were done using a FACScalibur flow cytometer (Becton Dickinson, San Jose, CA). The red fluorescence of PI was collected through a 585/42-nm band -pass filter, and the fluorescence signals were measured in a linear scale of 1024 channels. For each sample, at least 10000 events were acquired and the data were analyzed using an appropriate software (CELLQuest, Becton Dickinson, San Jose, CA).

B16F10 melanoma = experiment: Tumor growth and survival of B16F10 melanoma bearing mice; type: in vivo, C57Bl/6J mice
Protocol: In vivo experiments were conducted in male C57BL/6J mice (18-25 g), housed at 22 ± 2°C under a 12/12 h light/dark cycle with free access to food and water until use. The animals were acclimatized to the laboratory for at least 24 h before testing and were used only once. All animal handling and experimental procedures were conducted with prior approval of the ethics committee on animal use of the University of São Paulo Medical School Hospital Ethics Committee.
To mice experimentations, the simvastatin compressed powders were macerated and watery solutions were made.
All animal's procedures were made in Butantan Institute with supervision of Dr. Durvanei Augusto Maria, in accordance with University of Sao Paulo Medical School Hospital Ethics Committee. Briefly, 5 × 10^4 B16F10 melanoma cells were injected subcutaneously into C57Bl/6J mice. […] Tumors were measured using a caliper and volume was estimated using the formula V = (small diameter)^2 × (large diameter)/¾ πR [13].
Tumor growth data were analyzed by Student's t test, survival rate data were analyzed by Kaplan-Meyer curves and hematological data were analyzed by one-way ANOVA with Tukey posttest using Graph Pad Prism Stat version 4.0 for Windows.

Blood cells evaluation = type: in vivo, C57BL/6J mice; conditions: mean ± S.E.M., seven animals
Protocol: (§1) C57BL/6J mice, weighing about 20 g and 60 days older were used. After the experiments, blood was collected from the axillary plexus. The bone marrow was collected from the femur of the same animals. The spleen cellularities were also analyzed.
Blood samples were collected twenty days after tumor implant from the axillary plexus of the animals in all experimental groups, which were used to perform blood and reticulocyte count, according to the techniques used in the Laboratory of Experimental Hematology of FCF/USP [14].

[2] = Bone marrow and spleen cellularity; type: in vivo, C57BL/6J mice
Protocol: as §1
The animals were first anesthetized, exsanguinated and sacrificed by cervical dislocation. The bone marrow was obtained by washing the cavity with the culture femoral McCoy's 5A modified (Sigma, Chemical Company, USA) ice cream.
Sleen cells were collected by the same sacrificed animals of hematological procedures. The spleen was transferred to plastic Petri dish with iced culture McCoy's 5A modified (Sigma, Chemical Company, USA) containing 10% EDTA, used to collect the cells. In the Petri dish, the spleen capsule was broken in one of its ends, with the aid of two needles bent into "L", and fixed in syringes. The cells were gently removed from the dish by the dissociation method. The suspension was homogenized in the Petri dish with standard Pasteur pipette to complete cell separation and transferred to conical plastic tube and kept in an ice bath. The cells obtained from the spleen were quantified in a Neubauer chamber hemocytometer after dilution of 1:500 liquid Turk, diluent composed of 1% solution of glacial acetic acid. For morphological evaluation, the slides were performed in cell suspension cellspin cytocentrifuge (Incibras) and subsequently submitted to the staining of May-Grunwald GIENS, modified by Rosenfeld, and peroxidase method modified by Graham Knoll, for identification and quantification of different types cell.

[3] = melanoma bearing mice (Tumor-Simvastatin), twenty days after implant
[4] = mice without tumor (Control-Simvastatin)
[5] = mice bearing melanoma treated with same doses
[6] = mice without tumor (Control-Simvastatin), vs control

CCC(C)(C)C(=O)O[C@H]1C[C@@H](C)C=C2C=C[C@H](C)[C@H](CC[C@@H]3C[C@@H](O)CC(=O)O3)[C@H]21 [simvastatin, Simvastatin]
toxic effect on B16F10 cells ([1]; 0.8 μM): toxic effect
toxic effect on B16F10 cells ([1]; 1.6 μM): toxic effect
toxicity (cell death) in the first 24 h of incubation ([1]; 1.6 μM, first 24 h): massive death
number of viable cells, trypan blue assay ([1]; cultured melanoma, after 48 hours, vs vehicle-treated): reduces the number of viable cells
cell cycle effect (B16F10 melanoma cells; 24 hours): early cell cycle arrest in G0/G1
hypodiploid cells (B16F10 melanoma cells; after G0/G1 arrest): increase of hypodiploid cells
final tumor sizing compared to the controls (B16F10 melanoma; 5 mg/Kg/day orally for 10 days, started 10 days after inoculation): 25%
treated mice with a survival of 28 days (Kaplan-Meyer) (B16F10 melanoma; 5 mg/Kg/day orally, no survival mice of control group on day 24): Twenty-five percent
total tumoral regression (B16F10 melanoma; melanoma bearing mice, tumor re-started to grow when treatment aborted): not developed
tumor inhibition (B16F10 tumor growth) (B16F10 melanoma; over 10 days period): approximately 75%
Eosinophils (Blood cells evaluation; [3]): 8.5 ± 3.0 %
Hemoglobin (Blood cells evaluation; [3]): 12.4 ± 1.2 g/dL
Total Leukocytes (Blood cells evaluation; [3]): 3.9 ± 0.8 * 103/mm3
Eosinophils (Blood cells evaluation; [4]): 4.7 ± 1.4%
Hemoglobin (Blood cells evaluation; [4]): 12.8 ± 1.9 g/dL
Total Leukocytes (Blood cells evaluation; [4]): 3.3 ± 0.1 * 103/mm3
Femoral Bone Marrow cellularity [2, 5]: equal
Spleen cellularity [2, 5]: equal
Femoral Bone Marrow cellularity [2, 6]: decreased
Spleen cellularity [2, 6]: decreased
